Results reported in patent US12180485B2, “Repressible control of gene expression” (TRUSTEES OF BOSTON UNIVERSITY, priority 2020, dated 2024).
“Also recorded” adds a separate entry of the source. Read-outs that look alike come from different tables or passages of the source.

What was measured:
[1] = target: CID domains; details: cited from earlier work; for Kd: ligand / CID dimerization domain, read-out: Dissociation constant (Kd); for Reversibility: reversibility of the ligand-induced dimerization / action
[2] = system: mammalian systems; details: cited from earlier work
[3] = system: Cre reporter; assay: Caffeine inducible split Cre (CaffVHH), Cre reporter in transfected cells; format: cell-based
[4] = system: mCherry; assay: mCherry knockdown by inducible split RfxCas13d (ON switch) in transfected HEK 293 FT cells, flow cytometry; format: cell-based; details: for knockdown with assistance of gRNA: mCherry; for knockdown across the various CID systems: split pairs coupled with CID domains, with inducer
[5] = target: grazoprevir/NS3a complex (Hepatitis C virus genotype 1a, UniProt P27958, T1100M/T1173A); details: cited from earlier work
[6] = target: asunaprevir-bound NS3a (Hepatitis C virus genotype 1a, UniProt P27958, T1100M/T1173A); details: cited from earlier work
[7] = target: NS3a/danoprevir complex (Hepatitis C virus genotype 1a, UniProt P27958, T1100M/T1173A); details: cited from earlier work
[8] = toxicity in mammalian systems at working concentration

## CC1=CC(=O)CC(C)(C)[C@@]1(O)/C=C/C(C)=C\C(=O)O [Abscisic acid]
[1]
  Kd: 20 nM
  Reversibility: yes
[2]
  Toxicity*: no

## CO[C@H]1C[C@@H]2CC[C@@H](C)[C@@](O)(O2)C(=O)C(=O)N2CCCC[C@H]2C(=O)O[C@H]([C@H](C)C[C@@H]2CC[C@@H](O)[C@H](OC)C2)CC(=O)[C@H](C)/C=C(\C)[C@@H](O)[C@@H](OC)C(=O)[C@H](C)C[C@H](C)/C=C/C=C/C=C/1C [Rapamycin]
[2]; [8]
  Toxicity*: no

## CC/C(=C(\c1ccccc1)c1ccc(OCCN(C)C)cc1)c1ccccc1 [Tamoxifen]
[1]
  Reversibility: hardly
[2]; [8]
  Toxicity*: no

## Cn1c(=O)c2c(ncn2C)n(C)c1=O [caffeine, reference compound]
[1]
  Kd: 1200 nM
  Reversibility: yes
[2]; [8]
  Toxicity*: no
[3]; 48 hours
  caffeine concentration able to turn on Cre activity and generate reporter expression: 0.1 µM
[3]; FIG. 1C
  caffeine concentration not sufficient to induce recombination: 0.01 µM
  caffeine concentration over which recombination efficiency did not increase significantly: over 50 uM

## Gibberellin
[1]
  Kd: 1000 nM
  Reversibility: yes
[2]; [8]
  Toxicity*: yes

B1: 384/385: RfxCas13d split pair at 384/385 (protein)
chain 1: IEKKKSFAKGMGVKSTLVSGSKVYMTTFAEGSDARLEKIVEGDSIRSVNEGEAFSAEMADKNAGYKIGNAKFSHPKGYAVVANNPLYTGPVQQDMLGLKETLEKRYFGESADGNDNICIQVIHNILDIEKILAEYITNAAYAVNNISGLDKDIIGFGKFSTVYTYDEFKDPEHHRAAFNNNDKLINAIKAQYDEFDNFLDNPRLGYFGQAFFSKEGRNYIINYGNECYDILALLSGLRHWVVHNNEEESRISRTWLYNLDKNLDNEYISTLNYLYDRITNELTNSFSKNSAANVNYIAETLGINPAEFAEQYFRFSIMKEQKNLGFNITKLREVMLDRKDMSEIRKNHKVFDSIRTKVYTMMDFVIYRYYIEEDAKVAAANKSL
chain 2: PDNEKSLSEKDIFVINLRGSFNDDQKDALYYDEANRIWRKLENIMHNIKEFRGNKTREYKKKDAPRLPRILPAGRDVSAFSKLMYALTMFLDGKEINDLLTTLINKFDNIQSFLKVMPLIGVNAKFVEEYAFFKDSAKIADELRLIKSFARMGEPIADARRAMYIDAIRILGTNLSYDELKALADTFSLDENGNKLKKGKHGMRNFIINNVISNKRFHYLIRYGDPAHLHEIAKNEAVVKFVLGRIADIQKKQGQNGKNQIDRYYETCIGKDKGKSVSEKVDALTKIITGMNYDQFDKKRSVIEDTGRENAEREKFKKIISLYLTVIYHILKNIVNINARYVIGFHCVERDAQLYKEKGYDINLKKLEEKGFSSVTKLCAGIDETAPDKRKDVEKEMAERAKESIDSLESANPKLYANYIKYSDEKKAEEFTRQINREKAKTALNAYLRNTKWNVIIREDLLRIDNKTCTLFRNKAVHLEVARYVHAYINDIAEVNSYFQLYHYIMQRIIMNERYEKSSGKVSEYFDAVNDEKKYNDRLLKLLCVPFGYCIPRFKNLSIEALFDRNEAAKFDKEKKKVSGNS
[4]
  knockdown with assistance of gRNA: relatively efficient knockdown

B2: 177/178: RfxCas13d split pair at 177/178 (protein)
chain 1: IEKKKSFAKGMGVKSTLVSGSKVYMTTFAEGSDARLEKIVEGDSIRSVNEGEAFSAEMADKNAGYKIGNAKFSHPKGYAVVANNPLYTGPVQQDMLGLKETLEKRYFGESADGNDNICIQVIHNILDIEKILAEYITNAAYAVNNISGLDKDIIGFGKFSTVYTYDEFKDPEHHRAA
chain 2: FNNNDKLINAIKAQYDEFDNFLDNPRLGYFGQAFFSKEGRNYIINYGNECYDILALLSGLRHWVVHNNEEESRISRTWLYNLDKNLDNEYISTLNYLYDRITNELTNSFSKNSAANVNYIAETLGINPAEFAEQYFRFSIMKEQKNLGFNITKLREVMLDRKDMSEIRKNHKVFDSIRTKVYTMMDFVIYRYYIEEDAKVAAANKSLPDNEKSLSEKDIFVINLRGSFNDDQKDALYYDEANRIWRKLENIMHNIKEFRGNKTREYKKKDAPRLPRILPAGRDVSAFSKLMYALTMFLDGKEINDLLTTLINKFDNIQSFLKVMPLIGVNAKFVEEYAFFKDSAKIADELRLIKSFARMGEPIADARRAMYIDAIRILGTNLSYDELKALADTFSLDENGNKLKKGKHGMRNFIINNVISNKRFHYLIRYGDPAHLHEIAKNEAVVKFVLGRIADIQKKQGQNGKNQIDRYYETCIGKDKGKSVSEKVDALTKIITGMNYDQFDKKRSVIEDTGRENAEREKFKKIISLYLTVIYHILKNIVNINARYVIGFHCVERDAQLYKEKGYDINLKKLEEKGFSSVTKLCAGIDETAPDKRKDVEKEMAERAKESIDSLESANPKLYANYIKYSDEKKAEEFTRQINREKAKTALNAYLRNTKWNVIIREDLLRIDNKTCTLFRNKAVHLEVARYVHAYINDIAEVNSYFQLYHYIMQRIIMNERYEKSSGKVSEYFDAVNDEKKYNDRLLKLLCVPFGYCIPRFKNLSIEALFDRNEAAKFDKEKKKVSGNS
[4]
  knockdown with assistance of gRNA: relatively efficient knockdown

B3: 655/656: RfxCas13d split pair at 655/656, plain or fused to CID domains (protein)
chain 1: IEKKKSFAKGMGVKSTLVSGSKVYMTTFAEGSDARLEKIVEGDSIRSVNEGEAFSAEMADKNAGYKIGNAKFSHPKGYAVVANNPLYTGPVQQDMLGLKETLEKRYFGESADGNDNICIQVIHNILDIEKILAEYITNAAYAVNNISGLDKDIIGFGKFSTVYTYDEFKDPEHHRAAFNNNDKLINAIKAQYDEFDNFLDNPRLGYFGQAFFSKEGRNYIINYGNECYDILALLSGLRHWVVHNNEEESRISRTWLYNLDKNLDNEYISTLNYLYDRITNELTNSFSKNSAANVNYIAETLGINPAEFAEQYFRFSIMKEQKNLGFNITKLREVMLDRKDMSEIRKNHKVFDSIRTKVYTMMDFVIYRYYIEEDAKVAAANKSLPDNEKSLSEKDIFVINLRGSFNDDQKDALYYDEANRIWRKLENIMHNIKEFRGNKTREYKKKDAPRLPRILPAGRDVSAFSKLMYALTMFLDGKEINDLLTTLINKFDNIQSFLKVMPLIGVNAKFVEEYAFFKDSAKIADELRLIKSFARMGEPIADARRAMYIDAIRILGTNLSYDELKALADTFSLDENGNKLKKGKHGMRNFIINNVISNKRFHYLIRYGDPAHLHEIAKNEAVVKFVLGRIADIQKKQGQNGKNQIDRYYETCIGK
chain 2: DKGKSVSEKVDALTKIITGMNYDQFDKKRSVIEDTGRENAEREKFKKIISLYLTVIYHILKNIVNINARYVIGFHCVERDAQLYKEKGYDINLKKLEEKGFSSVTKLCAGIDETAPDKRKDVEKEMAERAKESIDSLESANPKLYANYIKYSDEKKAEEFTRQINREKAKTALNAYLRNTKWNVIIREDLLRIDNKTCTLFRNKAVHLEVARYVHAYINDIAEVNSYFQLYHYIMQRIIMNERYEKSSGKVSEYFDAVNDEKKYNDRLLKLLCVPFGYCIPRFKNLSIEALFDRNEAAKFDKEKKKVSGNS
[4]; GIB induced split pairs, NES on one moiety, NLS on the other
  performance after NES/NLS compartmentalization: high inducibility with minimal leakiness
[4]
  knockdown across the various CID systems: efficient knockdown; also recorded: consistently strong drug-induced knockdown

B4: D5: reader domain, SEQ ID NO: 166 (protein)
chain: SSDEEEARELIERAKEAAERAQEAAERTGDPRVRELARELKRLAQEAAEEVKRDPSSSDVNEALKLIVEAIEAAVDALEAAERTGDPEVRELARELVRLAVEAAEEVQRNPSSSDVNEALLTIVIAIEAAVNALEAAERTGDPEVRELARELVRLAVEAAEEVQRNPSSREVNIALWKIVLAIQEAVESLREAEESGDPEKREKARERVREAVERAEEVQRDPSGWLNH
[5]
  binding of NS3 in the presence of grazoprevir: moderate binding
[6]
  binding of NS3 in the presence of asunaprevir: some binding
[7]
  binding of NS3 in the presence of danoprevir: moderate binding

B5: single CaffVHH: single CaffVHH version of split Cre 270/271 (protein)
VHH: EVQLQASGGGLVQAGGSLRLSCTASGRTGTIYSMAWFRQAPGKEREFLATVGWSSGITYYMDSVKGRFTISRDNAKNSAYLQMNSLKPEDTAVYYCTATRAYSVGYDYWGQGTQVTVSH
[3]; dose response, split Cre 270/271
  caffeine concentration achieving maximum recombination efficiency: 500 µM

B6: 507/508: RfxCas13d split pair at 507/508 fused to CID or dNS3/ANR domains (protein)
chain 1: IEKKKSFAKGMGVKSTLVSGSKVYMTTFAEGSDARLEKIVEGDSIRSVNEGEAFSAEMADKNAGYKIGNAKFSHPKGYAVVANNPLYTGPVQQDMLGLKETLEKRYFGESADGNDNICIQVIHNILDIEKILAEYITNAAYAVNNISGLDKDIIGFGKFSTVYTYDEFKDPEHHRAAFNNNDKLINAIKAQYDEFDNFLDNPRLGYFGQAFFSKEGRNYIINYGNECYDILALLSGLRHWVVHNNEEESRISRTWLYNLDKNLDNEYISTLNYLYDRITNELTNSFSKNSAANVNYIAETLGINPAEFAEQYFRFSIMKEQKNLGFNITKLREVMLDRKDMSEIRKNHKVFDSIRTKVYTMMDFVIYRYYIEEDAKVAAANKSLPDNEKSLSEKDIFVINLRGSFNDDQKDALYYDEANRIWRKLENIMHNIKEFRGNKTREYKKKDAPRLPRILPAGRDVSAFSKLMYALTMFLDGKEINDLLTTLINKFDNIQSFLKVMPLIGVN
chain 2: AKFVEEYAFFKDSAKIADELRLIKSFARMGEPIADARRAMYIDAIRILGTNLSYDELKALADTFSLDENGNKLKKGKHGMRNFIINNVISNKRFHYLIRYGDPAHLHEIAKNEAVVKFVLGRIADIQKKQGQNGKNQIDRYYETCIGKDKGKSVSEKVDALTKIITGMNYDQFDKKRSVIEDTGRENAEREKFKKIISLYLTVIYHILKNIVNINARYVIGFHCVERDAQLYKEKGYDINLKKLEEKGFSSVTKLCAGIDETAPDKRKDVEKEMAERAKESIDSLESANPKLYANYIKYSDEKKAEEFTRQINREKAKTALNAYLRNTKWNVIIREDLLRIDNKTCTLFRNKAVHLEVARYVHAYINDIAEVNSYFQLYHYIMQRIIMNERYEKSSGKVSEYFDAVNDEKKYNDRLLKLLCVPFGYCIPRFKNLSIEALFDRNEAAKFDKEKKKVSGNS
modifications: fused CID or dNS3/ANR domains
notes: RfxCas13d split pair at 507/508 fused to CID or dNS3/ANR domains
[4]; GIB: N ss-GAI/GID-ss C, ABA: N ss-PYL/ABI-ss C
  performance of reversed CID orientation versus original orientation: stronger inducibility and weaker leakiness
[4]
  knockdown across the various CID systems: consistently strong drug-induced knockdown
